# In publication PMC5931096, “A Phase I study of the novel immunomodulatory agent PG545 (pixatimod) in subjects with advanced solid tumours” (British Journal of Cancer, 2018):
# Entries after “also recorded” stand apart in the source; their conditions may differ.
# Assay: Phase I dose-escalation: safety, tolerability, DLT and MTD of weekly 1-h IV infusion
# Type: in vivo
# Method: The study was an open-label, multicentre, phase 1 dose-escalation study using a 3 + 3 design. The primary objective was to determine the MTD of weekly administered PG545 via IV infusion. Secondary objectives were to characterize safety, tolerability, clinical activity, PK and PD biomarkers.
# Patients continued treatment until disease progression, unacceptable toxicity or withdrawal (either voluntarily or investigator-decision).
# All patients were assessed for safety, those who received at least one dose of PG545 were evaluated for efficacy. Safety assessment included the incidence of all adverse events (AEs), irrespective of relationship to study drug, according to the National Cancer Institute Common Terminology Criteria for Adverse Events, version 4.0, and the incidence of patients experiencing dose modifications and/or premature discontinuation of study drug. Dose-limiting toxicities (DLTs) used to determine the MTD were defined as occurring during Cycle 1 of treatment only and related to PG545 according to investigator assessment. If no DLT occurred in the first three subjects, the next three-subject cohort was enrolled at the next highest available dose level. If a single DLT occurred, an additional three subjects was enrolled at the same dose level. Dose escalation continued until two subjects of the cohort experienced a DLT; this was defined as the toxic dose level. The dose-escalation phase was completed and MTD determined by reducing the dose to the next lowest dose compared to the toxic dose and expanding this cohort to at least 6 subjects.
smiles,measurement,setting,value
CC(C)CCC[C@@H](C)[C@H]1CC[C@H]2[C@@H]3CC[C@H]4C[C@@H](O[C@@H]5O[C@H](COS(=O)(=O)O)[C@@H](O[C@H]6O[C@H](COS(=O)(=O)O)[C@@H](O[C@H]7O[C@H](COS(=O)(=O)O)[C@@H](O[C@H]8O[C@H](COS(=O)(=O)O)[C@@H](OS(=O)(=O)O)[C@H](OS(=O)(=O)O)[C@H]8OS(=O)(=O)O)[C@H](OS(=O)(=O)O)[C@H]7OS(=O)(=O)O)[C@H](OS(=O)(=O)O)[C@H]6OS(=O)(=O)O)[C@H](OS(=O)(=O)O)[C@H]5OS(=O)(=O)O)CC[C@]4(C)[C@H]3CC[C@]12C [PG545],"Acute pulmonary oedema, related AE leading to discontinuation","25 mg, N = 3",0 n (%)
same,"Acute pulmonary oedema, related serious AE","25 mg, N = 3",0 n (%)
same,"Acute pulmonary oedema, related severe AE","25 mg, N = 3",0 n (%)
same,"Blood cholesterol increased, related severe AE","25 mg, N = 3",0 n (%)
same,"Blood cholesterol increased, treatment-related AE","25 mg, N = 3",0 n (%)
same,"Blood pressure increased, related severe AE","25 mg, N = 3",0 n (%)
same,"Chills, related AE leading to discontinuation","25 mg, N = 3",0 n (%)
same,"Chills, related severe AE","25 mg, N = 3",0 n (%)
same,"Chills, treatment-related AE","25 mg, N = 3",0 n (%)
same,"Decreased appetite, treatment-related AE","25 mg, N = 3",0 n (%)
same,"Diarrhoea, treatment-related AE","25 mg, N = 3",0 n (%)
same,"Epistaxis, related AE leading to discontinuation","25 mg, N = 3",0 n (%)
same,"Epistaxis, related serious AE","25 mg, N = 3",0 n (%)
same,"Epistaxis, related severe AE","25 mg, N = 3",0 n (%)
same,"Fatigue, related severe AE","25 mg, N = 3",0 n (%)
same,"Fatigue, treatment-related AE","25 mg, N = 3",0 n (%)
same,"Headache, treatment-related AE","25 mg, N = 3",0 n (%)
same,"Hypercholesterolemia, treatment-related AE","25 mg, N = 3",0 n (%)
same,"Hyperlipidaemia, related severe AE","25 mg, N = 3",0 n (%)
same,"Hypertension, related AE leading to discontinuation","25 mg, N = 3",0 n (%)
same,"Hypertension, related serious AE","25 mg, N = 3",0 n (%)
same,"Hypertension, related severe AE","25 mg, N = 3",0 n (%)
same,"Hypertension, treatment-related AE","25 mg, N = 3",0 n (%)
same,"Hypovolaemia, related serious AE","25 mg, N = 3",0 n (%)
same,"Infusion-related reaction, related serious AE","25 mg, N = 3",0 n (%)
same,"Infusion-related reaction, related severe AE","25 mg, N = 3",0 n (%)
same,"Infusion-related reaction, treatment-related AE","25 mg, N = 3",0 n (%)
same,"Injection site reaction, treatment-related AE","25 mg, N = 3",2 (67) n (%)
same,"Nausea, treatment-related AE","25 mg, N = 3",0 n (%)
same,"Pyrexia, related AE leading to discontinuation","25 mg, N = 3",0 n (%)
same,"Pyrexia, related serious AE","25 mg, N = 3",0 n (%)
same,"Pyrexia, related severe AE","25 mg, N = 3",0 n (%)
same,"Pyrexia, treatment-related AE","25 mg, N = 3",0 n (%)
same,"Acute pulmonary oedema, related AE leading to discontinuation","50 mg, N = 5",0 n (%)
same,"Acute pulmonary oedema, related serious AE","50 mg, N = 5",0 n (%)
same,"Acute pulmonary oedema, related severe AE","50 mg, N = 5",0 n (%)
same,"Blood cholesterol increased, related severe AE","50 mg, N = 5",0 n (%)
same,"Blood cholesterol increased, treatment-related AE","50 mg, N = 5",0 n (%)
same,"Blood pressure increased, related severe AE","50 mg, N = 5",0 n (%)
same,"Chills, related AE leading to discontinuation","50 mg, N = 5",1 (20) n (%)
same,"Chills, related severe AE","50 mg, N = 5",1 (20) n (%)
same,"Chills, treatment-related AE","50 mg, N = 5",1 (20) n (%)
same,"Decreased appetite, treatment-related AE","50 mg, N = 5",2 (40) n (%)
same,"Diarrhoea, treatment-related AE","50 mg, N = 5",1 (20) n (%)
same,"Epistaxis, related AE leading to discontinuation","50 mg, N = 5",0 n (%)
same,"Epistaxis, related serious AE","50 mg, N = 5",0 n (%)
same,"Epistaxis, related severe AE","50 mg, N = 5",0 n (%)
same,"Fatigue, related severe AE","50 mg, N = 5",1 (20) n (%)
same,"Fatigue, treatment-related AE","50 mg, N = 5",2 (40) n (%)
same,"Headache, treatment-related AE","50 mg, N = 5",0 n (%)
same,"Hypercholesterolemia, treatment-related AE","50 mg, N = 5",0 n (%)
same,"Hyperlipidaemia, related severe AE","50 mg, N = 5",0 n (%)
same,"Hypertension, related AE leading to discontinuation","50 mg, N = 5",0 n (%)
same,"Hypertension, related serious AE","50 mg, N = 5",0 n (%)
same,"Hypertension, related severe AE","50 mg, N = 5",0 n (%)
same,"Hypertension, treatment-related AE","50 mg, N = 5",1 (20) n (%)
same,"Hypovolaemia, related serious AE","50 mg, N = 5",0 n (%)
same,"Infusion-related reaction, related serious AE","50 mg, N = 5",0 n (%)
same,"Infusion-related reaction, related severe AE","50 mg, N = 5",0 n (%)
same,"Infusion-related reaction, treatment-related AE","50 mg, N = 5",0 n (%)
same,"Injection site reaction, treatment-related AE","50 mg, N = 5",0 n (%)
same,"Nausea, treatment-related AE","50 mg, N = 5",4 (80) n (%)
same,"Pyrexia, related AE leading to discontinuation","50 mg, N = 5",1 (20) n (%)
same,"Pyrexia, related serious AE","50 mg, N = 5",1 (20) n (%)
same,"Pyrexia, related severe AE","50 mg, N = 5",1 (20) n (%)
same,"Pyrexia, treatment-related AE","50 mg, N = 5",3 (60) n (%)
same,Dose-limiting toxicities (DLTs),100 mg cohort,No DLTs were noted; also recorded: no further DLT observed
same,Hypertension,100 mg cohort,not observed
same,"Acute pulmonary oedema, related AE leading to discontinuation","100 mg, N = 6",0 n (%)
same,"Acute pulmonary oedema, related serious AE","100 mg, N = 6",0 n (%)
same,"Acute pulmonary oedema, related severe AE","100 mg, N = 6",0 n (%)
same,"Blood cholesterol increased, related severe AE","100 mg, N = 6",0 n (%)
same,"Blood cholesterol increased, treatment-related AE","100 mg, N = 6",1 (17) n (%)
same,"Blood pressure increased, related severe AE","100 mg, N = 6",0 n (%)
same,"Chills, related AE leading to discontinuation","100 mg, N = 6",0 n (%)
same,"Chills, related severe AE","100 mg, N = 6",0 n (%)
same,"Chills, treatment-related AE","100 mg, N = 6",0 n (%)
same,"Decreased appetite, treatment-related AE","100 mg, N = 6",1 (17) n (%)
same,"Diarrhoea, treatment-related AE","100 mg, N = 6",2 (33) n (%)
same,"Epistaxis, related AE leading to discontinuation","100 mg, N = 6",0 n (%)
same,"Epistaxis, related serious AE","100 mg, N = 6",0 n (%)
same,"Epistaxis, related severe AE","100 mg, N = 6",0 n (%)
same,"Fatigue, related severe AE","100 mg, N = 6",1 (17) n (%)
same,"Fatigue, treatment-related AE","100 mg, N = 6",2 (33) n (%)
same,"Headache, treatment-related AE","100 mg, N = 6",2 (33) n (%)
same,"Hypercholesterolemia, treatment-related AE","100 mg, N = 6",2 (33) n (%)
same,"Hyperlipidaemia, related severe AE","100 mg, N = 6",1 (17) n (%)
same,"Hypertension, related AE leading to discontinuation","100 mg, N = 6",0 n (%)
same,"Hypertension, related serious AE","100 mg, N = 6",0 n (%)
same,"Hypertension, related severe AE","100 mg, N = 6",0 n (%)
same,"Hypertension, treatment-related AE","100 mg, N = 6",0 n (%)
same,"Hypovolaemia, related serious AE","100 mg, N = 6",1 (17) n (%)
same,"Infusion-related reaction, related serious AE","100 mg, N = 6",0 n (%)
same,"Infusion-related reaction, related severe AE","100 mg, N = 6",0 n (%)
same,"Infusion-related reaction, treatment-related AE","100 mg, N = 6",0 n (%)
same,"Injection site reaction, treatment-related AE","100 mg, N = 6",0 n (%)
same,"Nausea, treatment-related AE","100 mg, N = 6",0 n (%)
same,"Pyrexia, related AE leading to discontinuation","100 mg, N = 6",0 n (%)
same,"Pyrexia, related serious AE","100 mg, N = 6",0 n (%)
same,"Pyrexia, related severe AE","100 mg, N = 6",0 n (%)
